According to patent US20070093499A1, “Use of dasatinib for the treatment of bone metastasis” (Bristol-Myers Squibb Company, priority 2005, published 2007):
pIC50: −log10 of the molar value. Ends that are not written are not given here.

What was measured:
[1] = system: TRAP positive osteoclasts in mouse bone marrow cell culture; test: Osteoclast formation (TRAP staining) in mouse bone marrow cell culture; type: cell-based
Protocol: Bone marrow was harvested by flushing the femur and tibia bones of CDF-1 mice with PBS followed by washing twice with PBS and resuspending in DMEM with 10% FBS (1-2×10^6 cells/m, 10 ml). Cells were then seeded in 24-well plates (2×10^6 cells/well/ml) and were cultured for 6-9 days in DMEM media supplemented with the cytokines: 10 ng/ml recombinant mouse M-CSF-1 and 100 ng/ml recombinant mouse RANK ligand to induce osteoclast development. Culture medium was replaced every two days till day 5 and there was no medium replacing between day 6 and day 9. […] On days 5, 7, and 9, cell viability and number of TRAP positive cells were determined using the Acid Phosphatase Leukocyte staining kit. The bone marrow cells were washed with PBS and stained according to the protocol recommended by the vendor. TRAP positive cells and osteoclasts were counted using an inverted microscope.
Differentiation to osteoclasts then occurs in the presence of osteoclast differentiation factor or RANK ligand (Buckley and Fraser Buckley, K. A. and W. D. Fraser (2002). “Receptor activator for nuclear factor kappaB ligand and osteoprotegerin: regulators of bone physiology and immune responses/potential therapeutic agents and biochemical markers.” Ann Clin Biochem 39(Pt 6): 551-6.). To establish the cell culture model of osteoclasts, bone marrow cells were freshly harvested from the tibia and femur bones of mice and were seeded in 24-wells plates containing DMEM medium supplemented with 20 ng/ml M-CSF and 100 ng/ml RANK ligand, which are the conditions commonly used in murine bone marrow culturing conditions (Murray, L. J., T. J. Abrams, et al. (2003). “SU11248 inhibits tumor growth and CSF-1R-dependent osteolysis in an experimental breast cancer bone metastasis model.” Clin Exp Metastasis 20(8): 757-66.). The formation of osteoclasts was monitored by TRAP staining for 9 days. […] Starting from day 5, TRAP positive staining cells were observed, and the multi-nucleated TRAP positive staining osteoclasts (with ≧3 nuclei) were clearly detected on day 7 and became most abundant by day 9.
[…]. […] […]. […] […].

[2] = system: PTH-stimulated bone resorption in fetal rat long bones; test: In vitro bone resorption assay (45Ca release from fetal rat long bones); type: cell-based
Protocol: Fetal rat long bones were prepared and cultured as described previously. (Feyen J H M, Cardinaux F, Gamse R, Bruns C, Azria M, and Trechsel U. N-terminal truncation of salmon calcitonin leads to calcitonin antagonist. Structure activity relationship of N-terminally truncated salmon calcitonin fragments in vitro and in vivo. Biochemistry and Biophysiology Research Communication 1992; 187:8-13.) Briefly, pregnant Sprague Dawley rats were injected subcutaneously with 200 μCi ^45Ca on day 18 of gestation. The following day, radii and ulnae were dissected free from muscle and connective tissue. The cartilaginous ends of the bones were removed and the calcified diaphyses were cultured in 0.5 mL BGJ medium supplemented with 1 mg/mL bovine serum albumin (BSA, fraction V) in 24-well tissue culture plates in a CO2 incubator at 37° C. overnight to reduce free exchangeable calcium. Next, medium was replaced and the bone explants were maintained in culture for 5 days in the presence or absence of the compounds to be tested. On day 2, a 100 μL aliquot was taken from the medium and the medium was replaced with fresh medium with or without treatments. […] The amount of radioactive calcium was determined using a Beckman liquid scintillation counter. Bone resorption was expressed as the percentage ^45Ca released by day 5 of total amount of ^45Ca originally incorporated in bone explants.

TPTX rats [3] = test: Inhibition of PTH-induced hypercalcemia (serum calcium) in TPTX rats, oral BMS-354825; type: in vivo, rat
Protocol: Male Sprague-Dawley TPTX rats with basal serum calcium levels around 7-8 mg/dl were randomly assigned to the experimental groups. Alzet® mini-pumps containing a resorption stimulus (PTH: infusion rate of 0.3 μg/hr) were implanted subcutaneously. In brief, rats were anesthetized with isoflurane (5% of oxygen), the skin of the flank area was disinfected with a topical disinfectant. Following a small incision, a subcutaneous pouch was made with a sterile pair of blunt scissors, a mini-pump was inserted and the incision was closed with a wound clip. Upon drug administration, 500 μl of blood was sampled at the indicated time points by retro-orbital bleeding, the serum was collected and frozen at −80° C. Levels of serum calcium and drug were analyzed accordingly.
The serum levels of calcium of TPTX rats were quantitated by a photometric assay with the Roche Hitachi 917 (H9 17) automated chemistry analyzer (Indianapolis, Ind.). In this method, calcium reacts with o-cresolphthalein complexone in the presence of 8-hydroxyquinoline to form a purple chromophore. The color intensity of the purple complex is directly proportional to the calcium concentration and is measured photometrically on the analyzer. This method is capable of quantifying 0.2-18.2 mg/dL of serum calcium. For samples >18.2 mg/dL the samples must be diluted in saline and the value multiplied by the appropriate factor.
Malignancy related hypercalcemia has been strongly linked with bone resorption mediated by stimulation of native osteoclast formation and activity. […] In this model, the thyroid and parathyroid are surgically removed to induce hypocalcemia, then subsequent infusion with PTH stimulates the osteoclast-mediated calcemic response. […]. […] […]. […] […].
“Zoledronic acid versus placebo in the treatment of skeletal metastases in patients with lung cancer and other solid tumors: a phase III, double-blind, randomized trial—the Zoledronic Acid Lung Cancer and Other Solid Tumors Study Group.” J Clin Oncol 21(16): 3150-7). […] […]. […] […]. Due to the fact that osmotic pump works less efficiently after day 4, we intended not to include the data of calcium levels thereafter. […].

in vivo = conditions: Sprague-Dawley, rat, po, 30 mg/kg
Protocol: The serum levels of drug were analyzed by high performance liquid chromatography/mass spectrometry (HPLC/MS). […] After centrifugation to remove precipitated proteins, 5 μl of the supernatant was analyzed by HPLC/MS. The HPLC column was a Phenomenex Prodigy C18-ODS3 column (2 mm×50 mm, […]) maintained at 60° C. with a flow rate of 0.5 ml/min. […] The HPLC was interfaced to a Finnigan LCQ Advantage ion-trap mass spectrometer operated in the positive ion electrospray and full MS/MS mode. […] The limit of quantitation (LOQ) for the purposes of this assay was 0.004 μM. Quality control (QC) samples at two levels in the range of the standard curve were used to accept individual analytical sets. [drawing 3]
PK data analysis was performed by noncompartmental method using Kinetica (v4.0.2, InnaPhase Corporation, Philadelphia, Pa.). The maximum plasma concentration (Cmax) and the time reaching Cmax (Tmax) were determined by visually inspecting the profiles of plasma level of drug vs. time. […] The area under the plasma drug concentration curve (AUC) was estimated by the trapezoidal rule.

TPTX rats [4] = test: Serum calcium in thyro-parathyroidectomized rats, IP dosing; type: in vivo, rat
Protocol: Thyro-parathyroidectomy (TPTX) surgery was performed on male Sprague-Dawley rats (200 gram body weight) as described previously.4 Thyro-parathyroidectomized (TPTX) rats with serum calcium values of 5-8 mg/dl were used for the study (normal reference range is 10-12 mg/dl). On the day of the study (48 hours post-surgery), blood was collected from the tail vein under isoflurane anesthesia, and Alzet mini-pumps (delivering 1 μl/hr) containing 0.3 μg/ml of parathyroid hormone (PTH) were implanted subcutaneously. […] Blood was collected at 3, 6 & 24 hours after dosing and analyzed for serum calcium levels.

[5] = system: fetal rat long bone culture; conditions: Missbach et al. 1999; cited from earlier work
ovariectomized rats = conditions: Missbach et al. 1999; cited from earlier work
osteoclasts = conditions: cell culture; Murray et al. 2003; cited from earlier work
bone resorption = conditions: Murray et al. 2003; cited from earlier work

Compound: Cc1nc(Nc2ncc(C(=O)Nc3c(C)cccc3Cl)s2)cc(N2CCN(CCO)CC2)n1 [BMS-354825, N-(2-chloro-6-methylphenyl)-2-((6-(4-(2-hydroxyethyl)-1-piperazinyl)-2-methyl-4-pyrimidinyl)amino)-1,3-thiazole-5-carboxamide]
- formation of osteoclasts ([1]; DMEM with M-CSF/RANK ligand, dosed on day 5 post seeding): inhibited dose dependently
- pIC50 ([1]; Mus musculus, Osteoclast, 120 h, read-out: IC50, drug concentration required to inhibit 50% of osteoclast formation): 8.36
- number of osteoclasts ([1]; both culturing conditions: MDA-MB-231 condition media and DMEM with CSF/RANK ligand): significantly reduced
- number of the TRAP positive staining osteoclasts ([1]; various concentrations dosed on day 5, cultured up to 9 days): significantly reduced
- pIC50 ([2]; Rattus norvegicus, PTH 10^-8 M, read-out: apparent IC50, PTH-stimulated release of 45Ca (bone resorption)): 8.70
- PTH-stimulated bone resorption ([2]; at 5 nM): completely blocks
- inhibition of hypercalcemia compared with zometa 0.4 mg/kg/dose sc (TPTX rats [3]; 30 mg/kg/dose po, once daily): more effective than zometa
- inhibition of hypercalcemia compared with zometa 0.4 mg/kg/dose sc (TPTX rats [3]; 15 and 5 mg/kg/dose po, multiple treatment schedule): comparable inhibitory effect
- time to inhibition of serum calcium levels (TPTX rats [3]; 30, 15, 5 mg/kg/dose po (QD×5), PTH infused 24 hr prior to treatment): ≤ 3 h
- inhibition of serum calcium levels (TPTX rats [3]; 30, 15 and 5 mpk po (QD×1), upon initiation of PTH infusion): dose dependent inhibition
- inhibition of serum levels of calcium (TPTX rats [3]; 30 mpk (QD×1) and 15 mpk (2QD×1), orally): rapidly inhibited
- serum calcium levels vs control rats (TPTX rats [3]; day 3 post drug administration, 30 mpk QD×1 / 15 mpk 2QD×1 po): significantly below those of the control rats
- time of maximum inhibition of serum calcium levels (TPTX rats [3]; post drug administration, 15 and 30 mg/kg/dose po): 4 h
- AUC0-24 hr (in vivo): 0.91 µM·h
- Cmax (in vivo): 60 nM
- AUC(0-t) (in vivo; AUC0-24 hr): 1.16 µM·h
- Serum Calcium (TPTX rats [4]; 3 mg/kg ip, 0 Hour (before dosing)): 6.74 ± 0.29 mg/dL
- Serum Calcium (TPTX rats [4]; 3 mg/kg ip, 3 Hour): 5.68 ± 0.26 mg/dL
- Serum Calcium (TPTX rats [4]; 3 mg/kg ip, 6 Hour): 7.94 ± 1.19 mg/dL
- Serum Calcium (TPTX rats [4]; 3 mg/kg ip, 24 Hour): 11.88 ± 0.61 mg/dL
- significance of serum calcium effect vs vehicle (TPTX rats [4]; 3 mg/kg ip, 3 hour time point): not significant
- Serum Calcium (TPTX rats [4]; 10 mg/kg ip, 0 Hour (before dosing)): 6.68 ± 0.25 mg/dL
- Serum Calcium (TPTX rats [4]; 10 mg/kg ip, 3 Hour): 5.80 ± 0.19 mg/dL
- Serum Calcium (TPTX rats [4]; 10 mg/kg ip, 6 Hour): 5.36 ± 0.12 mg/dL
- Serum Calcium (TPTX rats [4]; 10 mg/kg ip, 24 Hour): 7.70 ± 0.78 mg/dL
- serum calcium levels vs vehicle and calcitonin (TPTX rats [4]; 10 mg/kg ip, after 24 hours): significantly lower than both vehicle and calcitonin

Compound: COc1cccc(-c2cn(-c3ccc(CCN4CCC(O)CC4)cc3)c3ncnc(N)c23)c1 [CGP77675]
- parathyroid hormone (PTH)-induced bone resorption [5]: inhibitory potency
- bone resorption (ovariectomized rats): inhibitory potency

Compound: O=P(O)(O)C(O)(Cn1ccnc1)P(=O)(O)O [zometa, reference compound]
- onset of inhibition of serum calcium levels (TPTX rats [3]; 0.4 mg/kg/dose sc (QD×5), PTH infused 24 hr prior to treatment): did not produce any appreciable inhibition until 24 hr

Compound: calcitonin: a drug currently being used to manage hypercalcemia clinically, used as a reference compound (CGNLSTCMLGTYTQDFNKFHTFPQTAIGVGAP; ends and bridges not checked; cysteine pairing not given here; UniProt P01258 85-116, looked up) [reference compound]
- inhibition of serum calcium levels (TPTX rats [3]; 5 IU/dose sc): rapid inhibition of serum calcium levels, but the inhibition was reversed rapidly
- serum calcium levels vs control rats (TPTX rats [3]; day 3, 5 IU/dose sc): no significant difference

Compound: CCN(CC)CCNC(=O)c1c(C)[nH]c(/C=C2\C(=O)Nc3ccc(F)cc32)c1C [Su-11248]
- formation and function of osteoclasts (osteoclasts): inhibitory potency
- bone resorption in vivo (bone resorption): inhibitory potency

Compound: Salmon Calcitonin [reference compound]
- Serum Calcium (TPTX rats [4]; 5 IU ip, 0 Hour (before dosing)): 6.68 ± 0.21 mg/dL
- Serum Calcium (TPTX rats [4]; 5 IU ip, 3 Hour): 5.06 ± 0.13 mg/dL
- Serum Calcium (TPTX rats [4]; 5 IU ip, 6 Hour): 5.14 ± 0.15 mg/dL
- Serum Calcium (TPTX rats [4]; 5 IU ip, 24 Hour): 10.62 ± 0.64 mg/dL
